Where two headings read alike, the source gives them in different places.
Columns and labels:
Toxicity Test = details: rat, in vivo, po
Protocol: Four non-fasted male rats of 160-250 gram body weight was used for each dose level. The compound to be tested was administered by the indicated route and the symptom onset time, the intensity of the effect and the duration during a 4 hour observation period were recorded. The LD50 estimation was based on a 7 day observation and was determined by the method of Miller and Tainter (Proc. Soc. Exp. Biol. Med. 57, 261 (1944)).

rat [1] = experiment: Yeast-Induced Hyperthermia Assay; format: in vivo; details: for antipyretic and hypothermic activity: rat; for ED50: po
From the text: The Yeast-Induced Hyperthermia Assay was used according to the procedure described by Khalili-Varasteh et al. in Arch. Int. Pharmacodyn.

rat [2] = experiment: Trypsin Hyperalgesic Assay (Published THA); format: in vivo; details: for ED50: po, 0.5 h
Protocol: (§1) The analgesic agents were administered 30 minutes after the administration of trypsin. In addition, a modification of Vinegar's published assay was carried out, comprising the administration of the analgesic agent preceding subplantar injection of trypsin (0.10 ml of 10% solution of trypsin in pyrogen-free water) by 15 minutes. In both THA's, pain scores were determined 60 minutes after trypsin injection.

rat [3] = experiment: Carrageenin Pleurisy Assay (CPA), 3 hour exudate volume; format: in vivo; details: for ED50: po, read-out: ED50, 3 hr. Vol
rat [4] = experiment: Carrageenin Pleurisy Assay (CPA), mobilized neutrophils at 3 hours; format: in vivo; details: Neutrophil, po, read-out: ED50, 3 hr. Cells
Protocol: Following the procedure described by Vinegar et al. in Proc Soc Exp Biol Med 151, 556, (1976), the acute anti-inflammatory activity of the compound of formula (I) was compared with that of known anti-inflammatory drugs in the rat. Two assays were performed: in the first, the average 3 hour exudate volume for each drug-treated group was determined and the % inhibition relative to solvent-fed control animals calculated, the ED50 being the dose required to reduce the 3 hour exudate volume by 50%; in the second, the number of mobilized neutrophils was quantified and the % inhibition relative to solvent-fed control animals calculated, the ED50 being the dose required to reduce the number of neutrophils mobilized at 3 hours by 50%.

rat [5] = experiment: Acetic Acid Writhing Test (AAWT), rat; format: in vivo; details: po
From the text: (§2) Using the procedure described by Koster et al. in Fed. […] 26, Anti-inflammatory Drugs, Ed.

rat [6] = experiment: Trypsin Hyperalgesic Assay (Modified THA); format: in vivo; details: po
Protocol: as §1

mouse = experiment: Acetic Acid Writhing Test (AAWT), mouse; format: in vivo; details: po
From the text: as §2

[7] = acetic acid writhing assays (species not stated); format: in vivo; details: in words
rat [8] = format: in vivo
rat [9] = experiment: Carrageenin Hindlimb Oedema Assay (CHOA); format: in vivo
rat [10] = experiment: anti-inflammatory action in the rat, in words (carrageenin pleurisy and carrageenin hindlimb oedema assays); format: in vivo
solubility of the base = format: physicochemical
peroxidase = experiment: inhibition of peroxidase; format: biochemical
[11] = test system: prostaglandin cyclooxygenase; experiment: inhibition of prostaglandin cyclooxygenase; format: biochemical
[12] = inhibition of analgesic activity by naloxone; format: in vivo
lipoxygenase = experiment: inhibition of lipoxygenase; format: biochemical
brain = experiment: analgesic activity when injected directly into the brain; format: in vivo
morphine receptor = experiment: binding to the morphine receptor
[13] = Rat Yeast Hyperthermia, p.o., read-out: ED50
[14] = Published THA, rat, p.o., agent 30 minutes after trypsin, read-out: ED50
[15] = CPA, 3 hour exudate volume reduced by 50%, rat, p.o.
[16] = CPA, neutrophils mobilized at 3 hours reduced by 50%, rat, p.o.
[17] = AAWT, rat, p.o., read-out: ED50
[18] = Modified THA, rat, p.o., agent 15 minutes before trypsin, read-out: ED50
[19] = male rats, 7 day observation, method of Miller and Tainter, read-out: LD50

CC(=O)Nc1ccc(O)cc1 [Acetaminophen]
LD50 at 168 h (Toxicity Test): 2000 mg/kg
NOAEL at 4 h (Toxicity Test): 250 mg/kg
antipyretic and hypothermic activity (rat [1]; in words): antipyretic and hypothermic activity
ED50 (rat [1]; [13]): 72 ± 8.6 mg/kg
ED50 (rat [2]; [14]): 360 mg/kg
duration of acute anti-inflammatory activity (time of drug administration prior to carrageenin in which inhibition of 3 hour pleural exudate volume declined to 40%) (rat [3]; CPA, 220 mg/kg (p.o.)): over 2 hours
ED50 (rat [3]; [15]): 172 ± 22.4 mg/kg
ED50 (rat [4]; [16]): 189 ± 48.6 mg/kg
ED50 (rat [5]; [17]): 127 ± 16.6 mg/kg
ED50 (rat [6]; [18]): 95 ± 17.2 mg/kg

CC(=O)Oc1ccccc1C(=O)O [Aspirin]
NOAEL at 4 h (Toxicity Test; male rats, 4 hour observation, read-out: No symptom dose): 10 mg/kg
LD50 at 168 h (Toxicity Test; [19]): 1610 mg/kg
ED50 (rat [1]): 50 ± 8.1 mg/kg
ED50 (rat [2]; Rattus norvegicus): > 180 mg/kg
ED50 (rat [3]; Rattus norvegicus, 3 h): 28 ± 3.2 mg/kg
ED50 (rat [4]; Rattus norvegicus, 3 h): 75 ± 7.5 mg/kg
ED50 (mouse; Mus musculus): 137 ± 16.9 mg/kg
ED50 (rat [5]; Rattus norvegicus): 21 ± 3.4 mg/kg
activity in the former (acetic acid writhing) assay [7]: inactive in the former assay
ED50 (rat [6]; Rattus norvegicus): > 180 mg/kg
gastric damage (rat [8]; single oral dose of 30 mg/kg): produces ulcers and haemorrhages
ED50 (rat [9]; Rattus norvegicus): 145 ± 74 mg/kg

O=C1CCCN1c1cccc2cccnc12 [Compound of Formula (I), 1-(8-quinolyl)-2-pyrrolidinone]
NOAEL at 4 h (Toxicity Test): 250 mg/kg
LD50 at 168 h (Toxicity Test; [19]): 1650 mg/kg
anti-inflammatory activity (rat [10]; rat): potent, long-lasting acute anti-inflammatory activity
anti-inflammatory effect compared with acetaminophen (rat [10]; versus acetaminophen): more potent and to have a longer lasting anti-inflammatory effect
effect on body temperature of rats with a normal temperature (rat [1]; in words, higher dose levels): lowers the body temperature of rats
antipyretic and hypothermic activity (rat [1]; in words): antipyretic and hypothermic activity
ED50 (rat [1]; [13]): 22 ± 3.9 mg/kg
ED50 (rat [2]; [14]): 37 ± 7.8 mg/kg
duration of analgesic activity (time of drug administration prior to trypsin in which inhibition of hyperalgesia declined to 40%) (rat [2]; published THA, 75 mg/kg (p.o.)): 10.8 h
solubility (solubility of the base; in 0.1 N HCl): > 50 mg/mL
solubility (solubility of the base; in water): > 50 mg/mL
duration of acute anti-inflammatory activity (time of drug administration prior to carrageenin in which inhibition of 3 hour pleural exudate volume declined to 40%) (rat [3]; CPA, 80 mg/kg (p.o.)): 9 h
ED50 (rat [3]; [15]): 20 ± 4.3 mg/kg
ED50 (rat [4]; [16]): 37 ± 10.4 mg/kg
inhibition of peroxidase (peroxidase): does not inhibit
inhibition of prostaglandin cyclooxygenase [11]: does not inhibit
ED50 (mouse; AAWT, mouse, p.o., read-out: ED50): 99 ± 9.8 mg/kg
inhibition of analgesic activity by naloxone [12]: not inhibited by naloxone
ED50 (rat [5]; [17]): 22 ± 2.1 mg/kg
inhibition of lipoxygenase (lipoxygenase): does not inhibit
ED50 (rat [6]; [18]): 13 ± 1.8 mg/kg
gastric damage (rat [8]; rat, 5 days of oral dosing at 40 mg/kg): does not produce gastric damage
gastric damage (rat [8]; rat, single oral dose of 200 mg/kg): does not produce gastric damage
ED50 (rat [9]; CHOA, rat, read-out: ED50): 54 ± 31.6 mg/kg
analgesic activity on injection into the brain (brain): inactive when injected directly into the brain
binding to the morphine receptor (morphine receptor): does not appreciably bind to the morphine receptor
